Where a name gives a salt, the structure may show the parent alone. Read-outs that look alike come from different tables or passages of the source. Each block holds one compound with its values, some of them ahead of it.
Assays:
[1] = test system: Male C57BL/6N mice fed 3H diet; assay: Mouse model of NASH and fibrosis induced by 3H diet; assay type: in vivo; conditions: for Hepatic inflammation Score (0-3) Left / Macrovesicular vaculation Score (0-3) Left / Perisinusoidal fibrosis Score (0-3) Left: left lobe; for Hepatic inflammation Score (0-3) Right / Macrovesicular vaculation Score (0-3) Right / Perisinusoidal fibrosis Score (0-3) Right: right lobe
Protocol: Male C57BL/6N mice are fed with D09100301 diet (Research Diets, 40% fat, 2% cholesterol, 24% fructose, (the, high fat, high cholesterol and high fructose, the “3H diet”) for 150 days. Each mouse is then singly housed after 5 days for an acclimation period. Plasma alanine aminotransferase (ALT) and cytokeratin 18 (CK18) are measured. After one week of recovery, the mice are randomized into 5 groups based on their ALT values, CK18 values, and body weight. […] Blood is collected from mice treated with the compound of Example 6 for 76 days 2 hours after the last dose. Compound levels in the plasma are analyzed by mass spectroscopy. […] At the completion of the study, the animals are sacrificed and their livers excised. Two sections of the left and right lobes are fixed in neutral buffered 10% formalin. Liver tissue slides are stained with hematoxylin and eosin (H&E), Sirius red, and Masson's Trichrome to prepare slides for pathological analysis. All specimens are examined microscopically and scored as a modified Brunt score NASH Activity Score. Scores are based on the grading scheme and end-points as described in Brunt E. M, et al., “Histopathology of nonalcoholic fatty liver disease,” World J. of Gastroenterol, 2010, 16(42), 5286-5296. Group means are then calculated for each individual end-point. The following endpoints are used to characterize the fast food model of NASH in mice as modified from NASH endpoints (See Brunt, E. M. “Histopathology of nonalcoholic fatty liver disease,” Clin Liver Dis., 2009, 13, 533-544 and Brunt, E. M, et al., “Nonalcoholic steatohepatitis: A proposal for grading and staging the histological lesions”, Am J Gastroenterology, 1999, 94(9), 2467-2474.

[2] = target: human recombinant SSAO (hSSAO) (Homo sapiens (Human), UniProt Q16853); assay: SSAO/VAP-1 in vitro activity, MAO-Glo assay, recombinant SSAO; assay type: biochemical; conditions: substrate 10 μM, mean ± SEM, read-out: hSSAO Inhib Rel IC50
Sequence of human recombinant SSAO (hSSAO) (Q16853 whole entry, canonical isoform): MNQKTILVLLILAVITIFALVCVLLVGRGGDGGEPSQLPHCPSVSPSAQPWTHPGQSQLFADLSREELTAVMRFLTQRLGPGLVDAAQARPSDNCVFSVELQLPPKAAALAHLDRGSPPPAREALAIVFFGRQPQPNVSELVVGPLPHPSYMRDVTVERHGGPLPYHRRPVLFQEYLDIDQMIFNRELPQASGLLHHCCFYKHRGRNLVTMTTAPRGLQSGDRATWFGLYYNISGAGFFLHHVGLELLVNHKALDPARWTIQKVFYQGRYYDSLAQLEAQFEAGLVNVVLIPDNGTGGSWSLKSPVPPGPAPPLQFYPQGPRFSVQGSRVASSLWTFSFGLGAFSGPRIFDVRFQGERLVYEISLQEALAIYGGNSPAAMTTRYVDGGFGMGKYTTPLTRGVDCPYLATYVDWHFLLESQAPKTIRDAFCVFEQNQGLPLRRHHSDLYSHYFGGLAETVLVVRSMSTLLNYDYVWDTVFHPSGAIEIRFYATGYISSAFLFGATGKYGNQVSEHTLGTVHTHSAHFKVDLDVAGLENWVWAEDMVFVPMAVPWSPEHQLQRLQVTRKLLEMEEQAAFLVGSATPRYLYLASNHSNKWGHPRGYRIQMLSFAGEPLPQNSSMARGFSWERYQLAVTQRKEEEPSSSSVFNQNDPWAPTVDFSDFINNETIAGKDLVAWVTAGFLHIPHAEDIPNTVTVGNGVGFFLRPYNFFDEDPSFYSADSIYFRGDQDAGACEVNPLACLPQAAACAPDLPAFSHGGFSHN
Protocol: Amine oxidase activity of recombinant SSAO, MAOa, and MAOb isoforms are measured using the MAO-Glo™ assay kit from Promega (V1402). Test compounds (with DMSO as vehicle, 0.5% v/v for SSAO) and the enzyme are incubated for 10 mins at room temperature before the addition of the luminogenic substrate. The substrate concentration is 10 μM for human recombinant SSAO. The assays are conducted in a pH 7.4 buffer (50 mM HEPES, 120 mM NaCl, 5 mM KCl, 2 mM CaCl2, 1.4 mM MgCl2, 0.001% Tween-20) in a well-plate. Oxidation of the substrate is conducted for 2 hrs before the addition of detecting reagent according the manufacture's protocol. The IC50 value of the tested compounds is calculated by fitting the dose response curve using a 4-parameter non-linear regression routine.

[3] = Plasma compound levels by mass spectroscopy in 3H diet mice; assay type: in vivo, mouse; conditions: for concentration at 2 h: male, C57BL/6N, plasma, read-out: Plasma Compound Level
Protocol: Male C57BL/6N mice are fed with D09100301 diet (Research Diets, 40% fat, 2% cholesterol, 24% fructose, (the, high fat, high cholesterol and high fructose, the “3H diet”) for 150 days. Each mouse is then singly housed after 5 days for an acclimation period. Plasma alanine aminotransferase (ALT) and cytokeratin 18 (CK18) are measured. After one week of recovery, the mice are randomized into 5 groups based on their ALT values, CK18 values, and body weight. […] Blood is collected from mice treated with the compound of Example 6 for 76 days 2 hours after the last dose. Compound levels in the plasma are analyzed by mass spectroscopy.

[4] = test system: SSAO activity in rat plasma and liver; assay: SSAO target engagement in rat plasma and liver; assay type: in vivo; conditions: for SSAO Activity (%) Liver 24 hour / SSAO Activity (%) Plasma 2 hour / SSAO Activity (%) Plasma 24 hour: mean ± SEM, n = 6
Protocol: The SSAO activity in rat plasma and liver tissues are measured using the MAO-Glo™ assay kit from Promega (V1402). The residual SSAO activity in rats after compound treatment is estimated by measuring the total amine oxidase activity in plasma or liver lysates that are insensitive to the presence of the MAO inhibitor Clogyline and Pargyline. Rats are administered the compound of Example 2 at the doses of 15, 3, 0.6, 0.12, 0.025, 0.005 mg/kg. The control group is administered with the same volume (2 ml/kg) of the dosing vehicle (hydroxyethyl cellulose 1% w/v, 0.25% Tween 80). Plasma and liver at 2 or 24 hours post compound treatment are harvested and stored at −78° C. until analysis. Tissue lysates are prepared by homogenization in a lysis buffer (20 mM HEPES, pH 7.4, 150 mM NaCl, 1 mM EDTA, 1 mM EGTA, 1% Triton X-100 and 1× Roche Complete protease inhibitor tablet). Tissue particles are removed by centrifugation at 12,000 rpm at 4° C. for 30 minutes. 40 μl of plasma or liver lysates is incubated with Clogyline (10 μM) and Pargyline (10 μM) for 20 minutes at room temperature before the addition of the luminogenic substrate (50 μM) for 60 minutes. The product generated is quantified according to the manufacture's procedure. The fraction of activity that is insensitive to the presence of the MAO inhibitors is used as the surrogate for the residual SSAO activity. The compound of Example 2 was evaluated in the protocol essentially as described above administered at various doses.

[5] = mouse 3H diet, 0.6 mg/kg once daily, mean ± SEM
[6] = mouse 3H diet, 0.6 mg/kg, mean ± SEM
[7] = mouse 3H diet, 2 mg/kg once daily, mean ± SEM
[8] = mouse 3H diet, 2 mg/kg, mean ± SEM
[9] = mouse 3H diet, 6 mg/kg once daily, mean ± SEM
[10] = mouse 3H diet, 6 mg/kg, mean ± SEM
[11] = mouse 3H diet, 20 mg/kg once daily, mean ± SEM
[12] = mouse 3H diet, 20 mg/kg, mean ± SEM

- IC50 [2]: 52 ± 5 nM
- concentration at 2 h ([3]; mouse, 2 mg/kg once daily, 76 days, 2 hours after last dose, mean ± SEM): 163 ± 21 ng/mL
- concentration at 2 h ([3]; mouse, 6 mg/kg once daily, 76 days, 2 hours after last dose, mean ± SEM): 560 ± 29 ng/mL
- concentration at 2 h ([3]; mouse, 20 mg/kg once daily, 76 days, 2 hours after last dose, mean ± SEM): 2120 ± 219 ng/mL
- Plasma Compound Level ([3]; mouse, 0.6 mg/kg once daily, 76 days, 2 hours after last dose, mean ± SEM): 66. ± 5 ng/ml
- plasma compound levels ([3]; treated mice, all doses): dose-dependent increase
SMILES: Cl.Cl.NC/C(=C\F)COc1cnc(N2CC[C@H](O)C2)nc1 [Example 6, (3 S)-1-[5-[(E)-2-(Aminomethyl)-3-fluoro-allyloxy]pyrimidin-2-yl]pyrrolidin-3-ol; Dihydrochloride]
- hepatic inflammation ([1]; 20 mg/kg): significant decrease
- macrovesicular vaculation ([1]; 20 mg/kg): significant decrease
- perisinusoidal fibrosis ([1]; 20 mg/kg): significant decrease
- triglyceride levels in blood ([1]; 6 and 20 mg/kg): decreased
- ALT ([1]; all groups of treated mice): significant decrease
- ALT [1, 5]: 530 ± 45 IU/L
- Plasma TG [1, 5]: 55 ± 6 mg/dL
- Hepatic inflammation Score (0-3) Left [1, 6]: 2.6 ± 0.1
- Macrovesicular vaculation Score (0-3) Left [1, 6]: 2.5 ± 0.1
- Perisinusoidal fibrosis Score (0-3) Left [1, 6]: 2.4 ± 0.2
- Hepatic inflammation Score (0-3) Right [1, 6]: 2.5 ± 0.1
- Macrovesicular vaculation Score (0-3) Right [1, 6]: 2.6 ± 0.1
- Perisinusoidal fibrosis Score (0-3) Right [1, 6]: 1.9 ± 0.2
- ALT [1, 7]: 483 ± 44 IU/L
- Plasma TG [1, 7]: 70 ± 11 mg/dL
- Hepatic inflammation Score (0-3) Left [1, 8]: 2.5 ± 0.1
- Macrovesicular vaculation Score (0-3) Left [1, 8]: 2.5 ± 0.1
- Perisinusoidal fibrosis Score (0-3) Left [1, 8]: 2.5 ± 0.2
- Hepatic inflammation Score (0-3) Right [1, 8]: 2.6 ± 0.1
- Macrovesicular vaculation Score (0-3) Right [1, 8]: 2.7 ± 0.1
- Perisinusoidal fibrosis Score (0-3) Right [1, 8]: 1.8 ± 0.2
- ALT [1, 9]: 495 ± 25 IU/L
- Plasma TG [1, 9]: 46 ± 4 mg/dL
- Hepatic inflammation Score (0-3) Left [1, 10]: 2.5 ± 0.2
- Macrovesicular vaculation Score (0-3) Left [1, 10]: 2.9 ± 0.1
- Perisinusoidal fibrosis Score (0-3) Left [1, 10]: 2.6 ± 0.2
- Hepatic inflammation Score (0-3) Right [1, 10]: 2.6 ± 0.2
- Macrovesicular vaculation Score (0-3) Right [1, 10]: 2.7 ± 0.1
- Perisinusoidal fibrosis Score (0-3) Right [1, 10]: 2.1 ± 0.3
- ALT [1, 11]: 466 ± 37 IU/L
- Plasma TG [1, 11]: 45 ± 5 mg/dL
- Hepatic inflammation Score (0-3) Left [1, 12]: 2.1 ± 0.1
- Macrovesicular vaculation Score (0-3) Left [1, 12]: 2.4 ± 0.2
- Perisinusoidal fibrosis Score (0-3) Left [1, 12]: 1.9 ± 0.2
- Hepatic inflammation Score (0-3) Right [1, 12]: 2.1 ± 0.1
- Macrovesicular vaculation Score (0-3) Right [1, 12]: 2.3 ± 0.1
- Perisinusoidal fibrosis Score (0-3) Right [1, 12]: 1.5 ± 0.2

SMILES: Cl.Cl.NC/C(=C\F)COc1cnc(N2CCC(O)CC2)nc1 [Example 2, 1-[5-[(E)-2-(Aminomethyl)-3-fluoro-allyloxy]pyrimidin-2-yl]piperidin-4-ol Dihydrochloride]
- SSAO Activity (%) Liver 24 hour ([4]; 0.005 mg/kg): 75 ± 18%
- SSAO Activity (%) Plasma 2 hour ([4]; 0.005 mg/kg): 31 ± 3%
- SSAO Activity (%) Plasma 24 hour ([4]; 0.005 mg/kg): 70 ± 7%
- SSAO Activity (%) Liver 24 hour ([4]; 0.025 mg/kg): 68 ± 14%
- SSAO Activity (%) Plasma 2 hour ([4]; 0.025 mg/kg): 21 ± 1%
- SSAO Activity (%) Plasma 24 hour ([4]; 0.025 mg/kg): 55 ± 9%
- SSAO Activity (%) Liver 24 hour ([4]; 0.12 mg/kg): 45 ± 8%
- SSAO Activity (%) Plasma 2 hour ([4]; 0.12 mg/kg): 7 ± 1%
- SSAO Activity (%) Plasma 24 hour ([4]; 0.12 mg/kg): 35 ± 4%
- SSAO Activity (%) Liver 24 hour ([4]; 0.6 mg/kg): 16.2 ± 2.9%
- SSAO Activity (%) Plasma 2 hour ([4]; 0.6 mg/kg): 4.3 ± 0.8%
- SSAO Activity (%) Plasma 24 hour ([4]; 0.6 mg/kg): 16.3 ± 2.6%
- SSAO Activity (%) Liver 24 hour ([4]; 3 mg/kg): 7.1 ± 1.7%
- SSAO Activity (%) Plasma 2 hour ([4]; 3 mg/kg): 3.6 ± 1.0%
- SSAO Activity (%) Plasma 24 hour ([4]; 3 mg/kg): 8.8 ± 1.3%
- SSAO Activity (%) Liver 24 hour ([4]; 15 mg/kg): 9.6 ± 2.6%
- SSAO Activity (%) Plasma 2 hour ([4]; 15 mg/kg): −0.6 ± 0.3%
- SSAO Activity (%) Plasma 24 hour ([4]; 15 mg/kg): 6.6 ± 1.8%
- SSAO activity in rat plasma and liver ([4]; doses 0.005-15 mg/kg): dose-dependently inhibits

- IC50 [2]: 32 ± 7 nM
SMILES: CO[C@H]1CCN(c2ncc(OC/C(=C/F)CN)cn2)C1 [Example 5, (E)-3-Fluoro-2-[[2-[(3S)-3-methoxypyrrolidin-1-yl]pyrimidin-5-yl]oxymethyl]prop-2-en-1-amine]

- IC50 [2]: 12 ± 1 nM
SMILES: COC1CCN(c2ncc(OC/C(=C/F)CN)cn2)CC1 [Example 3, (E)-3-Fluoro-2-[[2-(4-methoxy-1-piperidyl)pyrimidin-5-yl]oxymethyl]prop-2-en-1-amine, Dihydrochloride]
